This is an account of results in patent US11925690B2, “Bifunctional molecules for targeting Rpn11” (AMPHISTA THERAPEUTICS LTD, priority 2018, dated 2024).

Molecules are shown by their SMILES. Where only a bound is given, the exact number is not on record here.

Holding throughout (type): cell-based
The target in one test is T1, Brd4 (L) (Homo sapiens, UniProt O60885).
T1 construct: endogenous in cells; host or cells: HEK293 (CRL-1573), HeLa (CCL-2)
In words: Concentration-dependent BET degradation, immunoblot. The following applies: 4 h, 1 nM-10 μM. On the procedure: (§1) Immunoblotting. Proteins were separated by SDS-PAGE on NuPage 4-12% Bis-Tris gels, followed by transfer to Amersham Protran 0.45 NC nitrocellulose membrane (GE Healthcare) using wet transfer. Membranes were blocked using 5% w/v milk in Tris-buffered saline (TBS) with 0.1% Tween-20. Blots were probed (overnight at 4 °C) using anti-Brd2 (Abcam ab139690, 1:2,000 dilution), anti-Brd3 (Abcam ab50818, 1:500 dilution), and anti-Brd4 (Abcam ab128874, 1:1,000 dilution) primary antibodies, as appropriate. The next day, blots were washed with TBST and incubated (1 h at Room temperature) with anti-Tubulin hFAB-rhodamine (BioRad, 12004166) primary antibody, and either anti-rabbit IRDye 800CW (Licor 1:1,000 dilution) or anti-mouse IRDye 800CW (Licor 1:1,000 dilution) secondary antibody. Blots were developed using a Bio-Rad ChemiDoc MP Imaging System, and band quantification was performed using Image Studio software (LiCor). Band intensities were normalized to the tubulin loading control and reported as % of the average 0.1% DMSO vehicle intensity. Degradation data was plotted and analysed using Prism (Graphpad, version 8).
(§2) HeLa (5×10^5) and HEK293 (1×10^6) cells were seeded in standard 6-well plates (2 mL medium) overnight before treatment with compounds at the desired concentration (1 nM-10 μM), with a final DMSO concentration of 0.1% v/v. After 4 h treatment time, cells were washed with DPBS (Gibco) and lysed using 85 μL RIPA buffer (Sigma-Aldrich) supplemented with cOmplete Mini EDTA-free protease inhibitor cocktail (Roche) and benzonase. Lysates were clarified by centrifugation (20000 g, 10 min, 4° C.) and the total protein content of the supernatant was quantified using a Bradford colorimetric assay. Samples were prepared using equal amounts of total protein and LDS sample buffer (Invitrogen). Band intensities were normalized to the tubulin loading control and reported as % of the average 0.1% DMSO vehicle intensity. Degradation data was plotted and analysed using Prism (Graphpad, version 8).
(§3) MZ1 and 11JQ17 were used at 1 μM for positive and negative controls, respectively. […] For the table, Dmax: +(Dmax≤25%); ++(26%≤Dmax≤50%); +++(51%≤Dmax≤70%); ++++(71%≤DC50: A (DC50≤50 nM); B (51 nM≤DC50≤500 nM); C (501 nM≤DC50).

Another test addresses T2, Brd4 (S) (Homo sapiens, UniProt O60885).
T2 construct: endogenous in cells; host or cells: HEK293 (CRL-1573), HeLa (CCL-2)
The test is described as above. The following applies: 4 h, 1 nM-10 μM. The procedure: as §1, §2, §3

Another test deals with T3, Brd4 (Homo sapiens, UniProt O60885).
T3 construct: immunoblot analysis of Brd4 following 4 h treatment of HEK293 cells; endogenous in cells; host or cells: HEK293 (CRL-1573)
Briefly: Immunoblot analysis of Brd4 in HEK293 cells (prodrug activity, negative SAR). The following applies: HEK293, 1 μM, 4 h, n=3. The procedure: as §1, with “8). […]” for “8).”
HEK293 (1×10^6) cells incubated with DMSO, 1 μM 11JQ15 or 1 μM 11JQ17 for 4 h with a final DMSO concentration of 0.1% v/v. […] Degradation data was plotted and analysed using Prism (Graphpad, version 8), where bars are mean±SEM of three independent experiments.
In general terms: Immunoblotting shows a protein as a band on a membrane.

The next test deals with HEK293 cells. Briefly: Unbiased whole proteome analysis by TMT-labelling MS. The following applies: HEK293, 1 μM, 4 h, n=3. On the procedure: HEK293 (2.2×10 6) cells were seeded in 10 cm plates (10 mL medium) overnight before treatment with 1 μM compound for a final DMSO concentration of 0.1% v/v. After 4 h incubation time, cells were washed with 2× with DPBS (Gibco) and lysed using 500 μL lysis buffer (100 mM Tris, 4% (w/v) SDS, pH 8.0) supplemented with cOmplete Mini EDTA-free protease inhibitor cocktail (Roche) and benzonase. Lysates were briefly sonicated (2×10 s), clarified by centrifugation (20000 g, 10 min, 4° C.) and the total protein content of the supernatant was quantified using a BCA assay (Thermo Fisher Scientific).
Sample processing, digestion, desalting, labelling, and fractionation were performed at Fingerprint Proteomics (University of Dundee) as described previously [Gadd et al. 10.1038/nchembio.2329]. FIG. 7 depicts fold change of abundance of 7882 proteins comparing 11JQ15 to DMSO treatment (left) and comparing 1 μM 11JQ17 to DMSO treatment (right), as well as their respective p-values (t-test; n=3).

The target in a further test is Brd2 (Homo sapiens, UniProt P25440). In words: Concentration-dependent BET degradation, immunoblot. Also noted: endogenous in cells; host or cells: HEK293 (CRL-1573), HeLa (CCL-2). The conditions noted are these: 1 nM-10 μM. On the procedure:
as §1, §2, §3

A further test has as its target Brd3 (Homo sapiens, UniProt Q15059). The test is described as above. Also noted: endogenous in cells; host or cells: HEK293 (CRL-1573), HeLa (CCL-2). The following applies: 1 nM-10 μM. On the procedure: as §1, §2, §3

The Dmax is the greatest extent of degradation seen. The low end stands for a partial loss of target, the high end for a fuller loss of target.

Chain of Brd2 (P25440 whole entry): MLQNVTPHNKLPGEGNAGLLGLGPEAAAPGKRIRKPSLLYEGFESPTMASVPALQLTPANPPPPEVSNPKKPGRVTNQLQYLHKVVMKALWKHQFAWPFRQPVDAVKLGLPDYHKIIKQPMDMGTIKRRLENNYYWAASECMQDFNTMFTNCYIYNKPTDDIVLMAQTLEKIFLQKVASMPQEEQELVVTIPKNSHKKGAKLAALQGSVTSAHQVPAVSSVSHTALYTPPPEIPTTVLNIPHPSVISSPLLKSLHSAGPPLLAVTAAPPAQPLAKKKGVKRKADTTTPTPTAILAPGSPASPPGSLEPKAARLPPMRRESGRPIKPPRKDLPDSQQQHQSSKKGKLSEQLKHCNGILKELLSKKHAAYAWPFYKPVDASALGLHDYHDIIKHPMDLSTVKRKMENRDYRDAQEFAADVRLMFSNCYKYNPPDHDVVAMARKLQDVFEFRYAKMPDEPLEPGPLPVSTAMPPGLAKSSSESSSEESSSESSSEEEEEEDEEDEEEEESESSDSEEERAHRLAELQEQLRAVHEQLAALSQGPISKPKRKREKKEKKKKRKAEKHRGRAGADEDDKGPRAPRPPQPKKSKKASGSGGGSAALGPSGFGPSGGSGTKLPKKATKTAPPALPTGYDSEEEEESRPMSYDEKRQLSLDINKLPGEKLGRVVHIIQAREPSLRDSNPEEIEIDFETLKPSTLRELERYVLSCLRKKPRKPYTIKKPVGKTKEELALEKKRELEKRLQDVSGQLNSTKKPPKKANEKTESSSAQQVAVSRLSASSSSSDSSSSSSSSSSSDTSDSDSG
Chain of Brd3 (Q15059 whole entry): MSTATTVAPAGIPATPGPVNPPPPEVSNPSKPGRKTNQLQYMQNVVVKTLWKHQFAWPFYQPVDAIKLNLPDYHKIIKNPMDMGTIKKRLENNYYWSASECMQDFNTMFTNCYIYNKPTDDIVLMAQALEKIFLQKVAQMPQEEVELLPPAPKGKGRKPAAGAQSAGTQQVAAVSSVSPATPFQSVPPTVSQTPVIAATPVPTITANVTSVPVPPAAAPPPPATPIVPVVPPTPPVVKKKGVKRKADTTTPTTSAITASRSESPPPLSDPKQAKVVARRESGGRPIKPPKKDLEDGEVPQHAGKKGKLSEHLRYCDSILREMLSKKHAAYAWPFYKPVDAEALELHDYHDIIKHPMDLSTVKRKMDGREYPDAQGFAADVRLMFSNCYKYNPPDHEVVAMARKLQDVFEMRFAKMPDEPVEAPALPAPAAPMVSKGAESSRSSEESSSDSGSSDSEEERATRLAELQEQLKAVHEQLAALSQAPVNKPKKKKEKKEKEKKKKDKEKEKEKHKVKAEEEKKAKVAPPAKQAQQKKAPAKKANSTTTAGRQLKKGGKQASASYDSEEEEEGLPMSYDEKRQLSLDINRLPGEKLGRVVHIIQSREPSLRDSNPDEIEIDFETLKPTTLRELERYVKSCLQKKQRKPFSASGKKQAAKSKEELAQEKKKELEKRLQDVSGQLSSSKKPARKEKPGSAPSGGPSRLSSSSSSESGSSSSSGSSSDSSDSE

For `Cc1sc2c(c1C)C(c1ccc(Cl)cc1)=N[C@@H](CC(=O)NCCOCCNC(=O)c1cc(SC(C)(C)C)c3ncc(C(=O)NCCc4nccs4)cc3c1)c1nnc(C)n1-2` [Example 11JQ17], the Dmax at Brd4 (L) (HEK293, Brd4 (L)) is not above 25%; on Brd4 (L) (HeLa), not above 25%; on Brd4 (S) (HEK293, Brd4 (S)), not above 25%; on Brd4 (S) (HeLa) it was not above 25%; at Brd2 (HEK293, Brd2, 4 h), not above 25%; on Brd2 (HeLa, Brd2, 4 h), not above 25%. The Dmax at Brd3 (HEK293, Brd3, 4 h) is not above 25%; at Brd3 (HeLa, Brd3, 4 h), not above 25%. Also, the “Brd4 levels (FIG. 3)” value at Brd4 is recorded as “minimal depletion”. For the same compound, the “fold change of abundance of 7882 proteins vs DMSO (FIG. 7)” value with HEK293 cells was “does not show any BET depletion”.
